The source made the active and inactive calls. No cut-off for these calls is given here.
Key:
[1] = Cytotoxicity against human PC3 cells after 48 hrs by MTT assay; assay type: functional, cell-based; details: PC-3, 48 h
[2] = Cytotoxicity against human FR2 cells after 48 hrs by MTT assay; assay type: cell-based; details: FR2, 48 h
A549 [3] = test: Induction of apoptosis in human A549 cells assessed as cellular blebs at 10 to 30 uM after 24 hrs by phase contrast microscopic analysis; assay type: functional, cell-based
A549 [4] = test: Induction of apoptosis in human A549 cells assessed as […] at 10 to 30 uM after 24 hrs by phase contrast microscopic analysis; assay type: functional, cell-based
A549 [5] = test: Induction of apoptosis in human A549 cells assessed as shrinkage of cell size at 10 to 30 uM after 24 hrs by phase contrast microscopic analysis; assay type: functional, cell-based
A549 [6] = test: Induction of apoptosis in human A549 cells assessed as formation of multiple apoptotic bodies at 10 to 30 uM after 24 hrs by Hoechst 33258 staining-based inverted fluorescence microscopic analysis; assay type: functional, cell-based
A549 [7] = test: Cell cycle arrest in human A549 cells assessed as increase in hypo diploid sub-G0 DNA fraction after 24 hrs by propidium iodide staining-based flow cytometric analysis; assay type: functional
A549 [8] = test: Cell cycle arrest in human A549 cells assessed as accumulation at sub-G0 phase at 10 uM after 24 hrs by propidium iodide staining-based flow cytometric analysis (reference value: 5%); assay type: functional
A549 [9] = test: Cell cycle arrest in human A549 cells assessed as accumulation at G1 phase at 10 uM after 24 hrs by propidium iodide staining-based flow cytometric analysis (reference value: 69%); assay type: functional
A549 [10] = test: Cell cycle arrest in human A549 cells assessed as accumulation at S phase at 10 uM after 24 hrs by propidium iodide staining-based flow cytometric analysis (reference value: 26%); assay type: functional
A549 [11] = test: Cell cycle arrest in human A549 cells assessed as accumulation at G2/M phase at 10 uM after 24 hrs by propidium iodide staining-based flow cytometric analysis (reference value: 5%); assay type: functional
A549 [12] = test: Cell cycle arrest in human A549 cells assessed as accumulation at sub-G0 phase at 30 uM after 24 hrs by propidium iodide staining-based flow cytometric analysis (reference value: 5%); assay type: functional
A549 [13] = test: Cell cycle arrest in human A549 cells assessed as accumulation at G1 phase at 30 uM after 24 hrs by propidium iodide staining-based flow cytometric analysis (reference value: 69%); assay type: functional
A549 [14] = test: Cell cycle arrest in human A549 cells assessed as accumulation at S phase at 30 uM after 24 hrs by propidium iodide staining-based flow cytometric analysis (reference value: 26%); assay type: functional
A549 [15] = test: Cell cycle arrest in human A549 cells assessed as accumulation at G2/M phase at 30 uM after 24 hrs by propidium iodide staining-based flow cytometric analysis (reference value: 5%); assay type: functional
A549 [16] = test: Downregulation of alpha-tubulin protein expression in human A549 cells at 10 to 30 uM after 24 hrs by Western blot analysis; assay type: functional, cell-based
A549 [17] = test: Downregulation of beta-tubulin protein expression in human A549 cells at 10 to 30 uM after 24 hrs by Western blot analysis; assay type: functional, cell-based
HeLa = test: cells; details: Homo sapiens, 48 h
Description: Cytotoxicity against human HeLa cells after 48 hrs by MTT assay

A549 [18] = test: cells; details: Homo sapiens, A549, 48 h
Description: Cytotoxicity against human A549 cells after 48 hrs by MTT assay

A549 [19] = test: Cell cycle arrest in human A549 cells assessed as accumulation at G2/M phase at 1 uM by propidium iodide staining-based flow cytometric analysis (reference value: 5%); assay type: functional

| SMILES | IC50 [1] | IC50 [2] | IC50 (HeLa) | IC50 (A549 [18]) | also measured |
| --- | --- | --- | --- | --- | --- |
| COc1ccc(C[C@H]2NC(=O)/C=C/C[C@@H](c3ccc([N+](=O)[O-])cc3)OC(=O)[C@H](CC(C)C)OC(=O)CCNC2=O)cc1 | 15 µM | 97 µM | 28 µM | 10 µM | Activity (A549 [3]): Active; Activity (A549 [4]): Active; Activity (A549 [5]): Active; Activity (A549 [6]): Active; Activity (A549 [7]): Dose-dependent effect; Activity (A549 [8]): 11%; Activity (A549 [9]): 59%; Activity (A549 [10]): 35%; Activity (A549 [11]): 6%; Activity (A549 [12]): 26%; Activity (A549 [13]): 62%; Activity (A549 [14]): 30%; Activity (A549 [15]): 8%; Activity (A549 [16]): Active; Activity (A549 [17]): Active |
| COc1ccc(C[C@H]2NC(=O)/C=C/C[C@@H](c3ccccc3[N+](=O)[O-])OC(=O)[C@H](CC(C)C)OC(=O)CCNC2=O)cc1 | 67 µM | > 100 µM | 29 µM | 15 µM | – |
| COc1ccc(C[C@@H]2NC(=O)/C=C/C[C@@H](c3c(F)c(F)c(F)c(F)c3F)OC(=O)[C@H](CC(C)C)OC(=O)CCNC2=O)cc1 | 100 µM | 79 µM | 100 µM | > 100 µM | – |
| CC(=O)O[C@H]1C(=O)[C@@]2(C)[C@H]([C@H](OC(=O)c3ccccc3)[C@]3(O)C[C@H](OC(=O)[C@H](O)[C@@H](NC(=O)c4ccccc4)c4ccccc4)C(C)=C1C3(C)C)[C@]1(OC(C)=O)CO[C@@H]1C[C@@H]2O [PACLITAXEL] | 0.012 µM | 16 µM | – | 0.025 µM | Activity (A549 [19]): 45% |
| COc1ccc(C[C@@H]2NC(=O)/C=C/C[C@@H](c3cccc([N+](=O)[O-])c3)OC(=O)[C@H](CC(C)C)OC(=O)CCNC2=O)cc1 | 100 µM | 93 µM | 35 µM | 90 µM | – |
| COc1ccc(C[C@@H]2NC(=O)/C=C/C[C@@H](c3ccccc3[N+](=O)[O-])OC(=O)[C@H](CC(C)C)OC(=O)CCNC2=O)cc1 | 100 µM | 90 µM | 47 µM | 13 µM | – |
| COc1ccc(C[C@@H]2NC(=O)/C=C/C[C@@H](c3ccc(Cl)cc3Cl)OC(=O)[C@H](CC(C)C)OC(=O)CCNC2=O)cc1 | 32 µM | > 100 µM | 33 µM | 45 µM | – |
| COc1ccc(C[C@H]2NC(=O)/C=C/C[C@@H](c3c(F)c(F)c(F)c(F)c3F)OC(=O)[C@H](CC(C)C)OC(=O)CCNC2=O)cc1 | 70 µM | > 100 µM | 78 µM | 30 µM | – |
| COc1ccc(C[C@@H]2NC(=O)/C=C/C[C@@H](c3ccc(Br)cc3)OC(=O)[C@H](CC(C)C)OC(=O)CCNC2=O)cc1 | 68 µM | > 100 µM | 60 µM | 56 µM | – |
| COc1ccc(C[C@H]2NC(=O)/C=C/C[C@@H](c3ccc(Cl)cc3Cl)OC(=O)[C@H](CC(C)C)OC(=O)CCNC2=O)cc1 | 100 µM | > 100 µM | 90 µM | 100 µM | – |
| COc1ccc(C[C@@H]2NC(=O)/C=C/C[C@@H](c3ccc([N+](=O)[O-])cc3)OC(=O)[C@H](CC(C)C)OC(=O)CCNC2=O)cc1 | 70 µM | 78 µM | 40 µM | 11 µM | Activity (A549 [3]): Active; Activity (A549 [4]): Active; Activity (A549 [5]): Active; Activity (A549 [6]): Active; Activity (A549 [7]): Dose-dependent effect; Activity (A549 [8]): 19%; Activity (A549 [9]): 65%; Activity (A549 [10]): 25%; Activity (A549 [11]): 10%; Activity (A549 [12]): 49%; Activity (A549 [13]): 80%; Activity (A549 [14]): 1%; Activity (A549 [15]): 19%; Activity (A549 [16]): Active; Activity (A549 [17]): Active |
| COc1ccc(C[C@H]2NC(=O)/C=C/C[C@@H](c3ccc(Br)cc3)OC(=O)[C@H](CC(C)C)OC(=O)CCNC2=O)cc1 | 60 µM | 87 µM | 55 µM | 60 µM | – |
| COc1ccc(C[C@H]2NC(=O)/C=C/C[C@@H](c3cccc([N+](=O)[O-])c3)OC(=O)[C@H](CC(C)C)OC(=O)CCNC2=O)cc1 | > 100 µM | > 100 µM | > 100 µM | > 100 µM | – |
